# From patent EP3741762A1, “OXALAMIDO-SUBSTITUTED TRICYCLIC INHIBITORS OF HEPATITIS B VIRUS” (priority 2019, dated 2020)
# Test system: HBV
# Assay: Anti-HBV activity in vitro: quantification of extracellular HBV DNA by direct qPCR in HepAD38 cells
# Assay type: cell-based
# Conditions: Hepatitis B virus, tetracycline-free medium, 96 hours at 37°C, reported as EC50 threshold value, read-out: HBV inh EC50
# Text: HepAD38 cell line (Ladner et al., Antimicrob Agents Chemother, 1997, 41, 1715-20) was used for HBV inhibition assays. HepAD38 is a subclone, derived from Hepatoblastoma cell line HepG2 (ATCC® Number: HB-8065™), that expresses HBV genome under the transcriptional control of a tetracycline-responsive promoter in a TET-OFF system: addition of tetracycline (TET) or doxycycline suppresses HBV replication, while its removal switches on the process allowing HBV viral particles release in the cell supernatant. HepAD38 cell line is maintained in DMEM/F12, supplemented with 10% of fetal bovine serum, 1% of glutamine, 1% of penicillin/streptomycin, 0.4 mg/ml G418 and 0,3 ug/ml tetracycline. For the HBV inhibition assay, doxycycline-free medium is used in order to allow virion production.
# HBV inhibition activity in vitro was performed in 96 multiwell plates. During the initial (primary) screening, compounds were first tested in triplicates at concentrations of 0.02 µM, 0.1 µM, 0.5µM and 1µM. For selected compounds, an 8-point dose-response curve was obtained using 1:2 serial dilutions (starting from 0.01µM, 0.1µM, 0.4µM or 5 µM, depending on the degree of inhibition observed during the primary screening). From the dose-response curves, half maximal effective concentration (EC50) could be calculated (see also below).
# In more detail, compounds - typically dissolved in DMSO stock solutions - were diluted to 2x the final desired concentration in 100 µl of the above medium (without doxycycline) and plated in three replicates in the 96-well plates.
# Simultaneously, HepAD38 cells - extensively pre-washed in tetracycline-free medium in order to induce HBV production - were suspended at 2^∗10^4 cells in 100 µl of tetracycline-free medium and added to each well of the plate, to yield a final assay volume of 200 µl DMSO - used for stock solutions and compounds dilutions - which was always present in the assays at a final concentration of 0.5%.
# Plates were then incubated 96 hours at 37°C and then subjected to cell viability assays and extracellular HBV quantification, in order to evaluate both the cytotoxic potential and the antiviral activity of compounds. Cytotoxicity was assessed by a commercial fluorescence assay that measures the metabolic activity of cells, directly related to cell viability (Cell Titer Blue, Promega). Anti-HBV activity was evaluated by quantification of extracellular HBV DNA with direct qPCR. In particular, supernatant was collected and centrifuged for cell debris clarification, viral DNA was extracted from virions by addition of lysis buffer (1 mM 1,4-dithiothreitol, 0.2% sodium dodecyl sulphate) and incubated at 95°C for 10 min. Samples were then diluted 1:40 and real time PCR amplification was performed with SYBR green assay (Power SYBR™ Green PCR Master Mix-Thermo Fisher Scientific) and specific HBV primer (HBV-DF:5'-[…]-3' (SEQ ID No. 1), HBV-DR:5'-[…]-3' (SEQ ID No.2)).
# Antiviral activity data for each compound are reported as EC50 threshold value (see Table 1 legend). Excel and Graphpad Prism programs are typically used for data elaboration and EC50 calculation.
row,Compound,EC50 [µM]
1,"Cc1cc(NC(=O)c2c3c(cn2C)S(=O)(=O)N[C@H]2CN(C(=O)C(=O)NC4(C(F)(F)F)CCC4)C[C@H]2CO3)ccc1F [Example E33, (3aR,10aR)-N-(4-fluoro-3-methylphenyl)-7-methyl-2-(2-oxo-2-((1-(trifluoromethyl)cyclobutyl)amino)acetyl)-2,3,3a,4,10,10a-hexahydro-1H,7H-dipyrrolo[3,4-b:3',4'-f][1,4,5]oxathiazocine-8-carboxamide 5,5-dioxide]",< 0.5
2,"Cc1cc(NC(=O)c2c3c(cn2C)S(=O)(=O)N[C@H]2CN(C(=O)C(=O)NC(C)(C)C)C[C@H]2CO3)ccc1F [Example E7, (3aR,10aR)-2-(2-(tert-butylamino)-2-oxoacetyl)-N-(4-fluoro-3-methylphenyl)-7-methyl-2,3,3a,4,10,10a-hexahydro-1H,7H-dipyrrolo[3,4-b:3',4'-f][1,4,5]oxathiazocine-8-carboxamide 5,5-dioxide]",< 0.5
3,"Cc1cc(NC(=O)c2c3c(cn2C)S(=O)(=O)N[C@H]2CN(C(=O)C(=O)NC4(C(F)(F)F)CC4)C[C@H]2CO3)ccc1F [Example E19, (3aR,10aR)-N-(4-fluoro-3-methylphenyl)-7-methyl-2-(2-oxo-2-((1-(trifluoromethyl)cyclopropyl)amino)acetyl)-2,3,3a,4,10,10a-hexahydro-1H,7H-dipyrrolo[3,4-b:3',4'-f][1,4,5]oxathiazocine-8-carboxamide 5,5-dioxide]",< 0.5
4,"Cc1cc(NC(=O)c2c3c(cn2C)S(=O)(=O)N[C@H]2CN(C(=O)C(=O)NC4CCC4)C[C@H]2CO3)ccc1F [Example E22, (3aR,10aR)-2-(2-(cyclobutylamino)-2-oxoacetyl)-N-(4-fluoro-3-methylphenyl)-7-methyl-2,3,3a,4,10,10a-hexahydro-1H,7H-dipyrrolo[3,4-b:3',4'-f][1,4,5]oxathiazocine-8-carboxamide 5,5-dioxide]",< 0.5
5,"CNC(=O)C(=O)N1C[C@@H]2COc3c(cn(C)c3C(=O)Nc3cc(F)c(F)c(F)c3)S(=O)(=O)N[C@@H]2C1 (relative stereo) [Example E12, cis-7-methyl-2-(2-(methylamino)-2-oxoacetyl)-N-(3,4,5-trifluorophenyl)-2,3,3a,4,10,10a-hexahydro-1H,7H-dipyrrolo[3,4-b:3',4'-f][1,4,5]oxathiazocine-8-carboxamide 5,5-dioxide]",< 0.5
6,"Cc1cc(NC(=O)c2c3c(cn2C)S(=O)(=O)N[C@H]2CN(C(=O)C(=O)NCC(F)(F)F)C[C@H]2CO3)ccc1F [Example E17, (3aR,10aR)-N-(4-fluoro-3-methylphenyl)-7-methyl-2-(2-oxo-2-((2,2,2-trifluoroethyl)amino)acetyl)-2,3,3a,4,10,10a-hexahydro-1H,7H-dipyrrolo[3,4-b:3',4'-f][1,4,5]oxathiazocine-8-carboxamide 5,5-dioxide]",< 0.5
7,"CNC(=O)C(=O)N1C[C@@H]2COc3c(cn(C)c3C(=O)Nc3ccc(F)c(C)c3)S(=O)(=O)N[C@@H]2C1 (relative stereo) [Example E10, cis N-(4-fluoro-3-methylphenyl)-7-methyl-2-(2-(methylamino)-2-oxoacetyl)-2,3,3a,4,10,10a-hexahydro-1H,7H-dipyrrolo[3,4-b:3',4'-f][1,4,5]oxathiazocine-8-carboxamide 5,5-dioxide]",< 0.5
8,"Cc1cc(NC(=O)c2c3c(cn2C)S(=O)(=O)N[C@H]2CN(C(=O)C(=O)NC(C)(C)C(F)(F)F)C[C@H]2CO3)ccc1F [Example E32, (3aR,10aR)-N-(4-fluoro-3-methylphenyl)-7-methyl-2-(2-oxo-2-((1,1,1-trifluoro-2-methylpropan-2-yl)amino)acetyl)-2,3,3a,4,10,10a-hexahydro-1H,7H-dipyrrolo[3,4-b:3',4'-f][1,4,5]oxathiazocine-8-carboxamide 5,5-dioxide]",< 0.5
